Measured values: the supplement of paper PMC10307832

Tests used:
Assay in all cases: relative viability (nuclei count vs DMSO), 5 days (fraction); higher = more cells survive
IPA-3 + Luminespib = compound: C1=CC=C2C(=C1)C=CC(=C2SSC3=C(C=CC4=CC=CC=C43)O)O [IPA-3] + CCNC(=O)c1noc(-c2cc(C(C)C)c(O)cc2O)c1-c1ccc(CN2CCOCC2)cc1 [Luminespib] (partner 0.01 µM)
Outline: (§1)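 Relative viability was taken as the ratio of nuclei in treated wells to nuclei in vehicle wells. Lung cancer cell lines in 1536-well plates received compounds by pin tool one day after seeding, either one drug alone or a fixed anchor-drug dose plus five library-drug doses (not always all listed) in √10 steps. Nuclei were counted on 4× images after 5 days of treatment, and values are medians of duplicate plates.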

RAF265 + Crizotinib = compound: Cn1c(Nc2ccc(C(F)(F)F)cc2)nc2cc(Oc3ccnc(-c4ncc(C(F)(F)F)[nH]4)c3)ccc21 [RAF265] + C[C@@H](Oc1cc(-c2cnn(C3CCNCC3)c2)cnc1N)c1c(Cl)ccc(F)c1Cl [Crizotinib] (partner 1 µM)
Outline: as §1

IPA-3 + Palbociclib = compound: C1=CC=C2C(=C1)C=CC(=C2SSC3=C(C=CC4=CC=CC=C43)O)O [IPA-3] + CC(=O)c1c(C)c2cnc(Nc3ccc(N4CCNCC4)cn3)nc2n(C2CCCC2)c1=O [Palbociclib] (partner 0.5 µM)
Outline: as §1

Doramapimod + Alpelisib = compound: Cc1ccc(-n2nc(C(C)(C)C)cc2NC(=O)Nc2ccc(OCCN3CCOCC3)c3ccccc23)cc1 [Doramapimod] + Cc1nc(NC(=O)N2CCC[C@H]2C(N)=O)sc1-c1ccnc(C(C)(C)C(F)(F)F)c1 [Alpelisib] (partner 2 µM)
Outline: as §1

With UMC-11 the relative viability (IPA-3 + Luminespib; first compound 0.2 µM) was 1.12, the relative viability (IPA-3 + Luminespib; first compound 0.6325 µM) was 0.94 and the relative viability (IPA-3 + Luminespib; first compound 2 µM) was 1.05. It also gave a relative viability (IPA-3 + Luminespib; first compound 6.325 µM) of 1.06, a relative viability (IPA-3 + Luminespib; first compound 20 µM) of 1.53 and a relative viability (RAF265 + Crizotinib; first compound 0.01 µM) of 0.676. The relative viability (RAF265 + Crizotinib; first compound 0.03162 µM) was 0.604, the relative viability (RAF265 + Crizotinib; first compound 0.1 µM) was 0.602 and the relative viability (RAF265 + Crizotinib; first compound 0.3162 µM) was 0.648. It also gave a relative viability (RAF265 + Crizotinib; first compound 1 µM) of 0.501, a relative viability (IPA-3 + Palbociclib; first compound 0.2 µM) of 0.323 and a relative viability (IPA-3 + Palbociclib; first compound 0.6325 µM) of 0.333. The relative viability (IPA-3 + Palbociclib; first compound 2 µM) was 0.312, the relative viability (IPA-3 + Palbociclib; first compound 6.325 µM) was 0.328 and the relative viability (IPA-3 + Palbociclib; first compound 20 µM) was 0.337. It also gave a relative viability (Doramapimod + Alpelisib; first compound 0.02 µM) of 1, a relative viability (Doramapimod + Alpelisib; first compound 0.06325 µM) of 1.03 and a relative viability (Doramapimod + Alpelisib; first compound 0.2 µM) of 0.891. It also gave a relative viability (Doramapimod + Alpelisib; first compound 0.6325 µM) of 0.989 and a relative viability (Doramapimod + Alpelisib; first compound 2 µM) of 0.876.
